Measurements reported in ChEMBL document CHEMBL1909046, “DrugMatrix in vitro pharmacology data”.

Columns and labels:
Melanocortin receptor 3 = Melanocortin receptor 3 (Homo sapiens, UniProt P41968); type: cell membranes, Membrane; settings: hek293; note: in other assays of this panel Not Active means under 50% inhibition at 10 µM
[1] = DRUGMATRIX: GABAA, Chloride Channel, TBOB radioligand binding (ligand: [3H] TBOB); type: cell membranes, Rattus norvegicus, Wistar, Cerebral cortex, Membrane; settings: Not Active = under 50% inhibition at 10 µM
[2] = molecular target: Vascular endothelial growth factor receptor 1 (Homo sapiens, UniProt P17948); type: cell-based; settings: huvec; note: in other assays of this panel Not Active means under 50% inhibition at 10 µM
[3] = DRUGMATRIX: Calcium Channel Type L, Benzothiazepine radioligand binding (ligand: [3H] Diltiazem); type: cell membranes, Rattus norvegicus, Wistar, Brain, Membrane; settings: Not Active = under 50% inhibition at 10 µM
Progesterone receptor = molecular target: T1, Progesterone receptor (Bos taurus, UniProt Q690N0); assay: DRUGMATRIX: Progesterone radioligand binding (ligand: [3H] R-5020); type: tissue-based, Uterus; settings: Not Active = under 50% inhibition at 10 µM
T1 sequence (Q690N0 whole entry): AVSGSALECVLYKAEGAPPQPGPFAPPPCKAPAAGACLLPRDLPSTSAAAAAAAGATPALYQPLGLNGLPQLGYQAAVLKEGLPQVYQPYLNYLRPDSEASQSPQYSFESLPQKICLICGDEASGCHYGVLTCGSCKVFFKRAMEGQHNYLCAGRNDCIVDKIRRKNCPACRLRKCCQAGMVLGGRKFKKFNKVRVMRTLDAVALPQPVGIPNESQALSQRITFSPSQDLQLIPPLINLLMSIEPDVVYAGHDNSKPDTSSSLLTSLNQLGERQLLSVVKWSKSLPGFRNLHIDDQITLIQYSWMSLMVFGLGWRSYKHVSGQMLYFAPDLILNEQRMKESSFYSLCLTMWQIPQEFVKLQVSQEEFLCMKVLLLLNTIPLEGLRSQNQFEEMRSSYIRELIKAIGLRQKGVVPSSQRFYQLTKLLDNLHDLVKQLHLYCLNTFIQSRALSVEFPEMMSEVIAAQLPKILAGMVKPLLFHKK

Histamine H2 receptor = Histamine H2 receptor (Homo sapiens, UniProt P25021); type: cell membranes, CHO-K1, Membrane; settings: for Ki: read-out: Ki; for all read-outs here: in other assays of this panel Not Active means under 50% inhibition at 10 µM
[4] = DRUGMATRIX: beta-Lactamase enzyme inhibition (substrate: Nitrocefin); set-up: species or system Bacillus cereus; settings: Not Active = under 50% inhibition at 10 µM
[5] = molecular target: T2, Alpha-1A adrenergic receptor (Rattus norvegicus, UniProt P43140); assay: DRUGMATRIX: Alpha-1A adrenergic receptor radioligand binding (ligand: prazosin); type: cell membranes, Wistar, Submaxillary gland, Membrane; settings: Not Active = under 50% inhibition at 10 µM
T2 sequence (P43140 whole entry): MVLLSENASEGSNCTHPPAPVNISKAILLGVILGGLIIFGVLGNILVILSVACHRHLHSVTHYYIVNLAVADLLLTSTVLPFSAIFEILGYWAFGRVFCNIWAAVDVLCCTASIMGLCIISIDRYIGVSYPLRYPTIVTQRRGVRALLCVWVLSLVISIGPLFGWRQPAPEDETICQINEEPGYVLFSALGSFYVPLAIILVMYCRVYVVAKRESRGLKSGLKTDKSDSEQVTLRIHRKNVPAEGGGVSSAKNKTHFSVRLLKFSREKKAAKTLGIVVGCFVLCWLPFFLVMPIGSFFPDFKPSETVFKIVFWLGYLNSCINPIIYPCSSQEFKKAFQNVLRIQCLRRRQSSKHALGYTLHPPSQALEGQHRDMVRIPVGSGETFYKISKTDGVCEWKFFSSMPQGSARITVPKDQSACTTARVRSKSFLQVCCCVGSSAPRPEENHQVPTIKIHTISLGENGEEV

[6] = DRUGMATRIX: Platelet-Derived Growth Factor (PDGF) radioligand binding (ligand: [125I] PDGF); type: cell-based; settings: nih3t3; Not Active = under 50% inhibition at 10 µM
[7] = molecular target: Beta-1 adrenergic receptor (Homo sapiens, UniProt P08588); assay: DRUGMATRIX: Adrenergic beta1 radioligand binding (ligand: [125I] Cyanopindolol); type: cell membranes, CHO-K1, Membrane; settings: Not Active = under 50% inhibition at 10 µM
[8] = molecular target: Tyrosine-protein kinase Fyn (Homo sapiens, UniProt P06241); assay: biochemical; type: cell-based, Insect cells;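 note: enzymatic inhibition of Fyn kinase activity measured with Poly(Glu:Tyr) as the phosphorylation substrate; in other assays of this panel Not Active means under 50% inhibition at 10 µM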
[9] = DRUGMATRIX: Nicotinic Acetylcholine radioligand binding (ligand: [125I] Epibatidine); type: cell membranes, Membrane; settings: imr-32; Not Active = under 50% inhibition at 10 µM
Melanocortin receptor 4 = Melanocortin receptor 4 (Homo sapiens, UniProt P32245); type: cell membranes, Membrane; settings: hek293; note: in other assays of this panel Not Active means under 50% inhibition at 10 µM
[10] = molecular target: T3, Neuropeptide Y receptor type 2 (Homo sapiens, UniProt P49146); type: cell membranes, Membrane; settings: kan-ts; note: in other assays of this panel Not Active means under 50% inhibition at 10 µM
T3 sequence (P49146 whole entry): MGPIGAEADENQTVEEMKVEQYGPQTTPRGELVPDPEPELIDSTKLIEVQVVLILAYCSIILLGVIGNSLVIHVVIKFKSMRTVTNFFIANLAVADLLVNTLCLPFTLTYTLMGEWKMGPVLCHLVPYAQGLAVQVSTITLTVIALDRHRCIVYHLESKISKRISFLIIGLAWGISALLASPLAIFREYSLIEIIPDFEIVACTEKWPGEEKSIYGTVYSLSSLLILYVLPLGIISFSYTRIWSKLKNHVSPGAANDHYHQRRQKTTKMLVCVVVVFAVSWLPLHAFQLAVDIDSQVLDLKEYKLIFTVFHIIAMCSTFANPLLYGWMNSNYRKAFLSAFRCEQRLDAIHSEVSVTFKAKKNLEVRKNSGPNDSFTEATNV

Leukotriene C4 synthase = molecular target: T4, Leukotriene C4 synthase (Cavia porcellus, UniProt A6XA80); assay: biochemical; type: tissue-based, Lung
T4 sequence (A6XA80 whole entry): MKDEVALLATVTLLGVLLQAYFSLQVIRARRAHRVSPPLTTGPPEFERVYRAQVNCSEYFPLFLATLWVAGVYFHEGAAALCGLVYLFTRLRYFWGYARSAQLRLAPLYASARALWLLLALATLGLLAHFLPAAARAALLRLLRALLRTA

D(4) dopamine receptor = molecular target: T5, D(4) dopamine receptor (Homo sapiens, UniProt P21917); assay: DRUGMATRIX: Dopamine D4.2 radioligand binding (ligand: [3H] Spiperone); type: cell membranes, CHO-K1, Membrane; settings: Not Active = under 50% inhibition at 10 µM
T5 sequence (P21917 whole entry): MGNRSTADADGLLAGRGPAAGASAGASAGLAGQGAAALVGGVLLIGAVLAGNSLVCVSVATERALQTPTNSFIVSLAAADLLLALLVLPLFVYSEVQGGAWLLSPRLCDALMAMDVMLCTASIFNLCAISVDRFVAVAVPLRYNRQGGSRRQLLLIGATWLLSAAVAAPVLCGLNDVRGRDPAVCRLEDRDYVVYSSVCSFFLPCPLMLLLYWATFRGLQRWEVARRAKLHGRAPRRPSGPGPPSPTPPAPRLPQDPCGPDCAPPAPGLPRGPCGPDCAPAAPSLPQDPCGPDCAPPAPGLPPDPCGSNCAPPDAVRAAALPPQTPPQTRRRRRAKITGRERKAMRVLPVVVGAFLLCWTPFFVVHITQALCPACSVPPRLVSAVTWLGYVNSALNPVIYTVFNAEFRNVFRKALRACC

[11] = DRUGMATRIX: Glutamate, NMDA, Phencyclidine radioligand binding (ligand: [3H] TCP); type: cell membranes, Rattus norvegicus, Wistar, Cerebral cortex, Membrane; settings: Not Active = under 50% inhibition at 10 µM

Vascular endothelial growth factor receptor 1, sequence (P17948 whole entry): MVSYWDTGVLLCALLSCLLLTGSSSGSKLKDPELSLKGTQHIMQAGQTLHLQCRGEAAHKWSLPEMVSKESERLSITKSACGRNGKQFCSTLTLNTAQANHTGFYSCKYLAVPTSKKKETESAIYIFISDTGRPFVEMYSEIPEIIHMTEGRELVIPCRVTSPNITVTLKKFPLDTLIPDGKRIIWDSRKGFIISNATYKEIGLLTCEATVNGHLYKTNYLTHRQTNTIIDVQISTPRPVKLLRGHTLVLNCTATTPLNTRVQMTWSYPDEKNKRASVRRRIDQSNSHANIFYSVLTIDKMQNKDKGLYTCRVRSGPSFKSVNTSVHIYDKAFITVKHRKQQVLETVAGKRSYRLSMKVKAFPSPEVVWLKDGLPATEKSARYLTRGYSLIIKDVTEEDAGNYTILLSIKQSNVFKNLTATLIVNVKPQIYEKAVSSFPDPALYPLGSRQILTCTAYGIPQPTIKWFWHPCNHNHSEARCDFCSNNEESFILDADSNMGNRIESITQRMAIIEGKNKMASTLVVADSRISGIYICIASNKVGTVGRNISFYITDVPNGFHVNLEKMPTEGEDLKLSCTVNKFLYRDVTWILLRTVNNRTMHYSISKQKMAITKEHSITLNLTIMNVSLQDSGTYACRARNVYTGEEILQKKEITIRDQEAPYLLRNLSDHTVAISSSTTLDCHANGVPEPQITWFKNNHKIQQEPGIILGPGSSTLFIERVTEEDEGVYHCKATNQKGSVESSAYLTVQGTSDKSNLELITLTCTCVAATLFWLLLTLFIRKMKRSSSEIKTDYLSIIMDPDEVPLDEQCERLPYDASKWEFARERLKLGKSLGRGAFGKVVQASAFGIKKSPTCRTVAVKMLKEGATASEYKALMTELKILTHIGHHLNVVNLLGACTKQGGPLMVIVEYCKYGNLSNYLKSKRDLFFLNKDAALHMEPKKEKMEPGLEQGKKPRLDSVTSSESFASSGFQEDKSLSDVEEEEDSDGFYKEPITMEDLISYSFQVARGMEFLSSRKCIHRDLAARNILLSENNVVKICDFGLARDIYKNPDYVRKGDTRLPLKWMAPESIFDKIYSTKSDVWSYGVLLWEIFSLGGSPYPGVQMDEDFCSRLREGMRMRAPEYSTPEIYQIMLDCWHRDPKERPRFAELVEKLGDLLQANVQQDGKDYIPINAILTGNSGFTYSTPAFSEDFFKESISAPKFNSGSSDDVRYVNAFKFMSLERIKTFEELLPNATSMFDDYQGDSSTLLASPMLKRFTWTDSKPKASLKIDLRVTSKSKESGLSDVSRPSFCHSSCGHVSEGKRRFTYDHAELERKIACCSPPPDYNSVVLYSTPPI
Beta-1 adrenergic receptor, sequence (P08588 whole entry): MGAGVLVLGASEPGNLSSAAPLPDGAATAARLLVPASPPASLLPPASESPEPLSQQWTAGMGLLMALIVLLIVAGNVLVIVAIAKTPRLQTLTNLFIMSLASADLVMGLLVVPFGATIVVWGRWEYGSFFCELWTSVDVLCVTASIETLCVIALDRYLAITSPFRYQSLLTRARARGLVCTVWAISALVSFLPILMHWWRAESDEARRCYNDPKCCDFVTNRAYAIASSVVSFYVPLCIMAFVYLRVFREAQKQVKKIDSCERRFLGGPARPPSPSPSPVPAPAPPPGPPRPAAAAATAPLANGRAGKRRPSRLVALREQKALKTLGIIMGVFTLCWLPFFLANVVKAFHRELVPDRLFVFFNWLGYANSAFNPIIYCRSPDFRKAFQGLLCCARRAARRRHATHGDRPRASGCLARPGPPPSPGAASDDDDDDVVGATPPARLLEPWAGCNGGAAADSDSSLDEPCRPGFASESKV
Melanocortin receptor 4, sequence (P32245 whole entry): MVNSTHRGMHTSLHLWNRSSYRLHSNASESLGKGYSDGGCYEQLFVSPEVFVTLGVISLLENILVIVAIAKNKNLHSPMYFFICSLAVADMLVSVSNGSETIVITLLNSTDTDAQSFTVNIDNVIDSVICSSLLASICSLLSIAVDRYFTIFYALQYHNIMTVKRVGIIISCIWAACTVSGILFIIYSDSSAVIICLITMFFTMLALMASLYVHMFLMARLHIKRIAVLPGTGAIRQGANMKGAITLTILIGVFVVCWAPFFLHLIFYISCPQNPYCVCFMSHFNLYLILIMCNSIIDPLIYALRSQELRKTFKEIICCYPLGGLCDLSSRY
Tyrosine-protein kinase Fyn, sequence (P06241 whole entry): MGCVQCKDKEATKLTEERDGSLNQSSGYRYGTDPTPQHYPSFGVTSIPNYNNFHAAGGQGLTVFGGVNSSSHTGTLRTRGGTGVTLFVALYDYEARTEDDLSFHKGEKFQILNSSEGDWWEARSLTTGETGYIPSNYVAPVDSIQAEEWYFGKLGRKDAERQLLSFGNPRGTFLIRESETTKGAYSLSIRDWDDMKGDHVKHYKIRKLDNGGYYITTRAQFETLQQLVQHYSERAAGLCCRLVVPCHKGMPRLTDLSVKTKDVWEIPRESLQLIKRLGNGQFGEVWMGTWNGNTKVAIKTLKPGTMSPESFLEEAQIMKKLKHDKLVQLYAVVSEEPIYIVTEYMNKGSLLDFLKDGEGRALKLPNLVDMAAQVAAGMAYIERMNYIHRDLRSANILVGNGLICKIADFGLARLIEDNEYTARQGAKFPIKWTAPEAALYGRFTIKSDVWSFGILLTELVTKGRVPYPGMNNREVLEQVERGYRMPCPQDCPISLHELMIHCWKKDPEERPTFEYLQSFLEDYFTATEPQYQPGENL
Histamine H2 receptor, sequence (P25021 whole entry): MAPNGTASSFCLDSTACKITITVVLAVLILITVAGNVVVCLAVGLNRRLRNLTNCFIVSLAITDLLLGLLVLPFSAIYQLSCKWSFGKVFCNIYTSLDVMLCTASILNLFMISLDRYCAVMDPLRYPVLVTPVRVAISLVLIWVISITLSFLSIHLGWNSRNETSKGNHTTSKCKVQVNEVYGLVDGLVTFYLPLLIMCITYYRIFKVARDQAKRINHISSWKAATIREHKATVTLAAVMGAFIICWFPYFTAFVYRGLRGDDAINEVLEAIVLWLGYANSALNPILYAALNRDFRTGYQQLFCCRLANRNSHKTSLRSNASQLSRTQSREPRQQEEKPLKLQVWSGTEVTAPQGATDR
Melanocortin receptor 3, sequence (P41968 whole entry): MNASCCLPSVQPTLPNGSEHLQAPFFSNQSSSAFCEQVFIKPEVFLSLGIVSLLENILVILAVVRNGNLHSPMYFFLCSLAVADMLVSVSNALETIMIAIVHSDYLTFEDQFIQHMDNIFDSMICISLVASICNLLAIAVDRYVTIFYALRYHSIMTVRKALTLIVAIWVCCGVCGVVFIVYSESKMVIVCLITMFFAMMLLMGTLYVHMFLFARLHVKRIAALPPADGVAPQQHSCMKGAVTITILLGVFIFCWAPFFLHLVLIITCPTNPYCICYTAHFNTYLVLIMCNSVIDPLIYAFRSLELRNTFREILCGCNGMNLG

| Structure (SMILES) | IC50 (Melanocortin receptor 3) | IC50 [1] | Ki [1] | IC50 [2] | IC50 [3] | Ki [3] | IC50 (Progesterone receptor) | IC50 (Histamine H2 receptor; cho-k1) | IC50 [4] | Ki [4] | IC50 [5] | IC50 [6] | Ki [6] | IC50 ([7]; cho-k1) | IC50 ([8]; insect cells) | IC50 [9] | IC50 (Melanocortin receptor 4) | IC50 [10] | IC50 (Leukotriene C4 synthase) | IC50 (D(4) dopamine receptor; cho-k1) | also measured |
| --- | --- | --- | --- | --- | --- | --- | --- | --- | --- | --- | --- | --- | --- | --- | --- | --- | --- | --- | --- | --- | --- |
| CCOC(=O)[C@H](CCc1ccccc1)N[C@@H](C)C(=O)N1[C@H](C(=O)O)C[C@@H]2CCC[C@@H]21 | Not Active | Not Active | Not Active | Not Active | Not Active | Not Active | Not Active | Not Active | Not Active | Not Active | Not Active | Not Active | Not Active | Not Active | Not Active | Not Active | Not Active | Not Active | Not Active | Not Active | Ki [9]: Not Active; IC50 [11]: Not Active; Ki [11]: Not Active |
| CC(C)(C)NC(=O)[C@@H]1CN(Cc2cccnc2)CCN1C[C@@H](O)C[C@@H](Cc1ccccc1)C(=O)N[C@H]1c2ccccc2C[C@H]1O.O | Not Active | Not Active | Not Active | Not Active | Not Active | Not Active | Not Active | Not Active | Not Active | Not Active | Not Active | Not Active | Not Active | Not Active | Not Active | Not Active | Not Active | Not Active | Not Active | Not Active | Ki [9]: Not Active; IC50 [11]: Not Active; Ki [11]: Not Active |
| CN(C)CCCN1c2ccccc2CCc2ccc(Cl)cc21 [CLOMIPRAMINE] | Not Active | – | – | Not Active | – | – | Not Active | – | – | – | – | – | – | Not Active | Not Active | – | Not Active | Not Active | Not Active | Not Active | IC50 (Histamine H2 receptor; read-out: IC50): 2.05 µM; Ki (Histamine H2 receptor): 2.02 µM |
| Clc1ccccc1C(c1ccccc1)(c1ccccc1)n1ccnc1 [CLOTRIMAZOLE] | Not Active | – | – | Not Active | – | – | – | – | – | – | – | – | – | – | – | – | Not Active | Not Active | Not Active | – | IC50 (Progesterone receptor; read-out: IC50): 8.77 µM; Ki (Progesterone receptor; read-out: Ki): 1.14 µM; IC50 (Histamine H2 receptor; read-out: IC50): 5.17 µM; Ki (Histamine H2 receptor): 5.08 µM; IC50 ([5]; read-out: IC50): 26.3 µM; Ki ([5]; read-out: Ki): 10.7 µM; IC50 ([7]; read-out: IC50): 11.3 µM; Ki ([7]; read-out: Ki): 6.51 µM; IC50 ([8]; read-out: IC50): 31.9 µM; IC50 (D(4) dopamine receptor; read-out: IC50): 19.9 µM; Ki (D(4) dopamine receptor; read-out: Ki): 6.99 µM |
| CC(C)(O)c1ccccc1CC[C@@H](SCC1(CC(=O)O)CC1)c1cccc(/C=C/c2ccc3ccc(Cl)cc3n2)c1 [MONTELUKAST] | Not Active | – | – | Not Active | – | – | Not Active | Not Active | – | – | Not Active | – | – | Not Active | – | – | Not Active | Not Active | Not Active | Not Active | IC50 ([8]; read-out: IC50): 4.7 µM |
| COc1cccc(C2(O)CCCCC2CN(C)C)c1 (centres undefined) [TRAMADOL] | Not Active | – | – | Not Active | – | – | Not Active | Not Active | – | – | Not Active | – | – | Not Active | Not Active | – | Not Active | Not Active | Not Active | Not Active | – |
| CN1[C@@H]2CC[C@H]1C[C@@H](OC(=O)c1c[nH]c3ccccc13)C2 [TROPISETRON] | Not Active | Not Active | Not Active | Not Active | Not Active | Not Active | – | Not Active | Not Active | Not Active | Not Active | Not Active | Not Active | Not Active | Not Active | Not Active | Not Active | Not Active | Not Active | Not Active | Ki [9]: Not Active; IC50 [11]: Not Active; Ki [11]: Not Active |
| COC(=O)[C@@H]1[C@H]2C[C@H]3c4[nH]c5ccccc5c4CCN3C[C@@H]2CC[C@@H]1O [YOHIMBINE] | Not Active | Not Active | Not Active | Not Active | Not Active | Not Active | Not Active | Not Active | Not Active | Not Active | – | Not Active | Not Active | Not Active | Not Active | Not Active | Not Active | Not Active | Not Active | Not Active | Ki [9]: Not Active; IC50 [11]: Not Active; Ki [11]: Not Active |
